These results are taken from patent US6200984A, “Naphtho-imidazo pyridine derivatives useful in treating central nervous system disorders” (Ortho-McNeil Pharmaceutical, Inc., priority 1998, dated 2001).

Where two headings read alike, the source gives them in different places.

One may read the IC50 as the concentration needed to halve the response being measured. A low value points to greater potency in that assay. By ED50 is commonly meant the dose at which the effect has come halfway, by size or by number of responders.

Test [1] addresses benzodiazepine site of the GABA-A receptor. As to the kind of experiment: Benzodiazepine Receptor Binding Assay (inhibition of 3H-flunitrazepam binding). The note with it: 3H-flunitrazepam ca. 3 nM.
Test [2] concerns Metrazol-Induced Convulsions. As to the kind of experiment: Suppression of Metrazol-Induced Convulsions in Adult Male Mice. Type of test: in vivo, mice (male CD1). The following applies: Mus musculus, ip, read-out: anti-metrazol ED50. The procedure: Assay to Determine the Suppression of Metrazol-Induced Convulsions in Adult Male Mice
Male CD1 mice, were fasted at least 16 hours, were divided into equal groups and test compounds or vehicle were administered parenterally. Water was not withheld except during the period of observations. […] Metrazol was dissolved in 0.9% sodium chloride solution, and its dose volume was 10 ml/kg. Animals were housed individually for observation of clonic convulsions, tonic convulsions and death for a period of 30 min. […] The biological assay was considered to be valid if the effects of a known anticonvulsant (positive control) were detected, within the same experiment. Activity was reported as percent reduction of clonic convulsions from the vehicle group.

In test [3] the test system is behavior suppressed by punishment (rat conflict). As to the kind of experiment: Suppression of Anxiety in the Adult Male Rat (rat conflict, Vogel). The note with it: po. Type of test: in vivo. The procedure: Assay to Measure the Suppression of Anxiety in the Adult Male Rat
Male rats were deprived of water for 48 hours and were deprived of food for 24 hours prior to testing. After the first 24 hours of water deprivation, they were placed in the conflict chamber for a training period; wherein, they were allowed 200 unpunished licks from a bottle containing tap water. The experiment was run the next day. At the expected time of peak activity, the animals were placed in the chamber and allowed access to tap water. […] Their first lick initiates a 3-min test session. Subsequently,every 20th lick was punished by a 0.2-s shock delivered via the stainless-steel drinking-tube. […] The Wilcoxon rank-sum test (Mann-WhitneyU-test) was used to test for an increase (p<0.05, 1-tailed) in the median number of shocks in drug-treated groups, compared to a concurrently run vehicle-treated group. The biological assay is considered to be valid if the effects of a known anxiolytic (positive control) are detected, within the same experiment.

Where [4] appears, read: minimum effective dose, Wilcoxon rank-sum test p<0.05, read-out: rat conflict MED.
[5] abbreviates: mice, s.c. CD90 metrazol, clonic convulsions.
Setting [6] is: Rattus norvegicus, read-out: rat conflict MED, po, minimum effective dose, Wilcoxon rank-sum test p<0.05.

For the compound `O=C1CCN2C(=C1C(=O)Nc1ccccc1F)Nc1cc3ccccc3cc12` [Example 1, 3-oxo-1,2,3,5-tetrahydronaphtho[2',3': 4,5]imidazo[1,2-a]pyridine-4-carboxylic acid (2-fluorophenyl)amide], the IC50 in test [1] is 17 nM. Further, in test [2], the ED50 worked out at 1 mg/kg. The minimal effective dose in test [3] (setting [4]) was more than 10 mg/kg.

In test [1], `CCOCN1C2=C(C(=O)Nc3ccccc3F)C(=O)CCN2c2cc3ccccc3cc21` [Example 15] returned an IC50 of 2.18 nM. Also, the ED50 in test [2] (setting [5]) was less than 1 mg/kg. Also, in test [3] (setting [6]), the minimal effective dose was more than 10 mg/kg.

In test [1], `COCCN1C2=C(C(=O)Nc3ccccc3F)C(=O)CCN2c2ccc3ccccc3c21` [Example 22] came in with an IC50 of 31.8 nM. For the same compound, the ED50 in test [2] (setting [5]) is more than 1 mg/kg. In addition, the minimal effective dose in test [3] (setting [6]) was more than 10 mg/kg.

`CCN1C2=C(C(=O)Nc3c(F)cccc3F)C(=O)CCN2c2cc3ccccc3cc21` [Example 4, 5-ethyl-3-oxo-1,2,3,5-tetrahydronaphtho[2',3': 4,5]imidazo[1,2-a]pyridine-4-carboxylic acid (2,6-difluorophenyl)amide] registered an IC50 in test [1] of 6.87 nM. In addition, in test [2] (setting [5]), the ED50 is more than 1 mg/kg. Besides, the minimal effective dose in test [3] (setting [4]) is more than 10 mg/kg.

In test [1], `O=C1CCN2C(=C1C(=O)Nc1c(F)cccc1F)Nc1c2ccc2ccccc12` [Example 23] registered a half-inhibitory concentration (IC50) of 17.9 nM. Moreover, the minimal effective dose in test [3] (setting [6]) was 10 mg/kg.

In test [1], `O=C1CCN2C(=C1C(=O)Nc1ccccc1F)Nc1c2ccc2ccccc12` [Example 13, 3-Oxo-1,2,3,5-tetrahydronaphtho[1',2': 4,5]imidazo[1,2-a]pyridine-4-carboxylic acid (2-fluorophenylamide)] yielded a half-inhibitory concentration (IC50) of 154 nM. Further, the ED50 in test [2] (setting [5]) is more than 1 mg/kg. For the same compound, the minimal effective dose in test [3] (setting [4]) was more than 10 mg/kg.

`CCOCCN1C2=C(C(=O)Nc3c(F)cccc3F)C(=O)CCN2c2ccc3ccccc3c21` [Example 25] came in with an IC50 in test [1] of 3.72 nM. In test [3] (setting [4]), the minimal effective dose is more than 3 mg/kg.

Consider `O=C1CCN2C(=C1C(=O)Nc1ccccc1F)Nc1ccc3ccccc3c12` [Example 11, 3-Oxo-1,2,3,5-tetrahydronaphtho[2',1': 4,5]imidazo[1,2-a]-pyridine-4-carboxylic acid (2-fluorophenylamide)], for which the half-maximal inhibitory concentration (IC50) in test [1] is more than 1000 nM. Moreover, the 50% effective dose (ED50) in test [2] (setting [5]) is more than 1 mg/kg. Also, the minimal effective dose in test [3] (setting [4]) was more than 10 mg/kg.

`O=C1CCN2C(=C1C(=O)Nc1c(F)cccc1F)Nc1c2ccc2ccccc12` [Example 20]: the 50% inhibitory concentration (IC50) in test [1] is 2.73 nM. Also, in test [2] (setting [5]), the ED50 was less than 1 mg/kg. Also, the minimal effective dose in test [3] (setting [4]) is more than 10 mg/kg.

In test [1], `CCN1C2=C(C(=O)Nc3cccs3)C(=O)CCN2c2cc3ccccc3cc21` [Example 16] had an IC50 of 0.7 nM. For the same compound, the ED50 in test [2] (setting [5]) is less than 1 mg/kg. The minimal effective dose in test [3] (setting [4]) was more than 10 mg/kg.

For the compound `CCOCN1C2=C(C(=O)Nc3c(F)cccc3F)C(=O)CCN2c2ccc3ccccc3c21` [Example 26], in test [1], the IC50 was 10.3 nM. Besides, in test [3] (setting [6]), the minimal effective dose is more than 10 mg/kg.

As for `COCCN1C2=C(C(=O)Nc3ccccc3F)C(=O)CCN2c2cc3ccccc3cc21` [Example 5, 5-(2-methoxyethyl)-3-oxo-1,2,3,5-tetrahydronaphthol[2',3': 4,5]-imidazo[1,2-a]pyridine-4-carboxylic acid (2-fluorophenyl)amide], the IC50 in test [1] was 0.37 nM. For the same compound, the ED50 in test [2] (setting [5]) was less than 1 mg/kg. Also, the minimal effective dose in test [3] (setting [4]) came to 10 mg/kg.

In test [1], `CN(CCN1C2=C(C(=O)Nc3ccccc3F)C(=O)CCN2c2cc3ccccc3cc21)Cc1ccccc1` [Example 6, 5-[2-(benzylmethylamino)ethyl)-3-oxo-1,2,3,5-tetrahydronaphtho[2',3': 4,5]imidazo[1,2-a]pyridine-4-carboxylic acid (2-fluorophenyl)amide] yielded an IC50 of 8.02 nM. Further, the ED50 in test [2] (setting [5]) is more than 1 mg/kg. Also, the minimal effective dose in test [3] (setting [6]) is more than 10 mg/kg.

`COCCN1C2=C(C(=O)Nc3ccccc3F)C(=O)CCN2c2c1ccc1ccccc21` [Example 12, 5-(2-Methoxyethyl)-3-oxo-1,2,3,5-tetrahydronaphtho[2',1': 4,5]-imidazo[1,2-a]pyridine-4-carboxylic acid (2-fluorophenylamide)] returned an IC50 in test [1] of 58 nM. For the same compound, the ED50 in test [2] (setting [5]) is more than 1 mg/kg. In test [3] (setting [4]), the minimal effective dose is more than 10 mg/kg.

In turn, `CNCCN1C2=C(C(=O)Nc3c(F)cccc3F)C(=O)CCN2c2cc3ccccc3cc21.Cl` [Example 9, 5-[2-(methylamino)ethyl)-3-oxo-1,2,3,5-tetrahydronaphtho[2',3': 4,5]imidazo[1,2-a]pyridine-4-carboxylic acid (2,6-difluorophenyl)amide hydrochloride] had an IC50 in test [1] of 75 nM. Besides, in test [2] (setting [5]), the ED50 was more than 1 mg/kg. Moreover, the minimal effective dose in test [3] (setting [4]) is more than 10 mg/kg.

In the case of `CCN1C2=C(C(=O)Nc3ccccc3F)C(=O)CCN2c2ccc3ccccc3c21` [Example 21], the 50% inhibitory concentration (IC50) in test [1] turned out to be 16.5 nM. In addition, the median effective dose (ED50) in test [2] (setting [5]) was more than 1 mg/kg. The minimal effective dose in test [3] (setting [4]) is more than 10 mg/kg.

In test [1], `CCOCN1C2=C(C(=O)Nc3c(F)cccc3F)C(=O)CCN2c2cc3ccccc3cc21` [Example 10, 5-Ethoxymethyl-3-oxo-1,2,3,5-tetrahydronaphtho[2',3': 4,5]-imidazo[1,2-a]pyridine-4-carboxylic acid (2,6-difluorophenyl)amide] yielded an IC50 of 13 nM. Besides, the 50% effective dose (ED50) in test [2] (setting [5]) is more than 1 mg/kg. Further, the minimal effective dose in test [3] (setting [4]) is more than 10 mg/kg.

The compound `CCN1C2=C(C(=O)Nc3ccccc3F)C(=O)CCN2c2cc3ccccc3cc21` [Example 3, 5-ethyl-3-oxo-1,2,3,5-tetrahydronaphtho[2',3': 4,5]imidazo[1,2-a]pyridine-4-carboxylic acid (2-fluorophenyl)amide] displayed an IC50 in test [1] of 0.94 nM. In test [2] (setting [5]), the ED50 is less than 1 mg/kg. For the same compound, the minimal effective dose in test [3] (setting [4]) was 10 mg/kg.

In test [1], `O=C1CCN2C(=C1C(=O)Nc1ccccc1F)N(CC1CC1)c1cc3ccccc3cc12` [Example 14] displayed an IC50 of 0.57 nM. In addition, the ED50 in test [2] (setting [5]) was less than 1 mg/kg. Besides, the minimal effective dose in test [3] (setting [6]) was more than 10 mg/kg.

Turning to `O=C1CCN2C(=C1C(=O)Nc1c(F)cccc1F)Nc1cc3ccccc3cc12` [Example 2, 3-oxo-1,2,3,5-tetrahydronaphtho[2',3': 4,5]imidazo[1,2-a]pyridine-4-carboxylic acid (2,6-difluorophenyl)amide], in test [1], the IC50 turned out to be 3.95 nM. Also, the ED50 in test [2] (setting [5]) was determined as 1 mg/kg. The minimal effective dose in test [3] (setting [6]) is more than 10 mg/kg.

The compound `CNCCN1C2=C(C(=O)Nc3ccccc3F)C(=O)CCN2c2cc3ccccc3cc21.Cl` [Example 8, 5-[2-(methylamino)ethyl)-3-oxo-1,2,3,5-tetrahydronaphtho[2',3': 4,5]imidazo[1,2-a]pyridine-4-carboxylic acid (2-fluorophenyl)amide hydrochloride] came in with an IC50 in test [1] of 7.98 nM. In addition, the ED50 in test [2] (setting [5]) is more than 1 mg/kg. The minimal effective dose in test [3] (setting [6]) is more than 10 mg/kg.

For the compound `CCN1C2=C(C(=O)Nc3nccs3)C(=O)CCN2c2cc3ccccc3cc21` [Example 18], in test [1], the IC50 is 11.1 nM. Besides, the ED50 in test [2] (setting [5]) was less than 1 mg/kg. For the same compound, in test [3] (setting [6]), the minimal effective dose is more than 10 mg/kg.

As to `CN(CCN1C2=C(C(=O)Nc3c(F)cccc3F)C(=O)CCN2c2cc3ccccc3cc21)Cc1ccccc1` [Example 7, 5-[2-(benzylmethylamino)ethyl)-3-oxo-1,2,3,5-tetrahydronaphtho[2',3': 4,5]imidazo[1,2-a]pyridine-4-carboxylic acid (2.6-difluorophenyl)amide], in test [1], the IC50 stood at 58 nM. For the same compound, in test [2] (setting [5]), the 50% effective dose (ED50) was more than 1 mg/kg. Moreover, in test [3] (setting [4]), the minimal effective dose was more than 10 mg/kg.

For `COCCN1C2=C(C(=O)Nc3nccs3)C(=O)CCN2c2cc3ccccc3cc21` [Example 19], the IC50 in test [1] was found to be 3.37 nM. Further, in test [2] (setting [5]), the ED50 is less than 1 mg/kg. In test [3] (setting [6]), the minimal effective dose is more than 10 mg/kg.

For the compound `O=C1CCN2C(=C1C(=O)Nc1nccs1)Nc1cc3ccccc3cc12` [Example 17], in test [1], the half-maximal inhibitory concentration (IC50) worked out at 360 nM. Besides, in test [2] (setting [5]), the ED50 was more than 1 mg/kg.

In test [1], `COCCN1C2=C(C(=O)Nc3c(F)cccc3F)C(=O)CCN2c2ccc3ccccc3c21` [Example 24] registered a concentration for half-maximal inhibition (IC50) of 0.29 nM. In addition, the 50% effective dose (ED50) in test [2] (setting [5]) turned out to be 1 mg/kg. The minimal effective dose in test [3] (setting [4]) is more than 3 mg/kg.
